Test results: publication PMC4920673, “Nitroimidazole carboxamides as antiparasitic agents targeting Giardia lamblia, Entamoeba histolytica and Trichomonas vaginalis” (European Journal of Medicinal Chemistry, 2016)
≈ marks a conversion by molar mass, not a printed value. Read-outs that look alike come from different tables or passages of the source.

Key:
[1] = system: G. lamblia WB (MtzS); assay: ATP-bioluminescence growth/survival EC50 assay, G. lamblia WB; settings: for EC50: Giardia duodenalis; for S.I (CC50/EC50): average cytotoxicity against HEK293 and HepG2 / G. lamblia WB activity
Method: (§1) Compounds were screened for antiparasitic activity using an ATP-bioluminescence based assay for cell growth and survival, [24]. […] Viable cell numbers were determined in triplicate using the CellTiter-Glo Luminescent Cell Viability Assay.

[2] = system: E. histolytica HM1:IMSS; assay: ATP-bioluminescence growth/survival EC50 assay, E. histolytica; format: cell-based, Entamoeba histolytica; settings: Entamoeba histolytica
Method: as §1

[3] = system: T. vaginalis F1623; assay: ATP-bioluminescence growth/survival EC50 assay, T. vaginalis; format: cell-based, Trichomonas vaginalis; settings: Trichomonas vaginalis, read-out: EC50 T. vaginalis F1623, MtzS; minimum n = 3
Method: as §1

[4] = system: C. difficile 630 (ATCC BAA-1382); assay: Broth microdilution MIC assay, C. difficile 630; format: cell-based, Clostridium difficile; settings: Clostridioides difficile, ATCCBAA1382; strain 630, MtzS; median of n = 4; read-out: MIC C. difficile 630
Method: Clostridium difficile strains (630, ATCC BAA-1382 and NAP1/027, ATCC BAA-1803) were maintained as previously described. The minimum inhibition concentration (MIC) was determined according to the CLSI Methods with modifications in broth and inoculum for C. difficile, [25], [26]. Briefly, compounds and control antibiotics were serially diluted two-fold in 96-well plates (Non-binding surface, Corning). […] C. difficile bacteria from BHIS(TA) agar plates were cultured anaerobically in BHIS at 37 °C overnight. […] An antibiotic standard, a positive growth control (no compound) and a sterility control (no bacteria) were included on each 96 well plate. Plates were covered and incubated at 37 °C for 24 h. MICs for each strain were determined as the lowest concentration without visible growth. […] Median MICs are reported with a range given when the median MIC was between two tested concentrations.

[5] = Resazurin cytotoxicity assay, HEK293; format: cell-based, Human; settings: human, 24 h, highest concentration 100 μM, n = 3, read-out: CC50 HEK 293
Method: (§2) Human HEK293 and HepG2 cells were seeded at 3000 and 5000 cells per well in 384-well plates, respectively. Cells were cultured in Dulbecco's modified Eagle's medium with 10% FBS for 24 h at 37 °C, 5% CO2. A dilution series of compounds was added, with the highest concentration of 100 μM. […] After 24 h incubation with the compounds, 5 μM resazurin was added into each well and incubated at 37 °C for 2 h. As a negative control, 1% Triton X-100 was added into the culture media to lyse all of the cells. The fluorescence intensity was read using Polarstar Omega with excitation/emission 560/590 nm. Data were analysed with GraphPad Prism 6 software (La Jolla, California USA) to calculate CC50 values.

[6] = Resazurin cytotoxicity assay, HepG2; format: cell-based, Human; settings: human, 24 h, highest concentration 100 μM, n = 3, read-out: CC50 Hep G2
Method: as §2

[7] = system: C. difficile NAP1/027 (ATCC BAA-1803); assay: Broth microdilution MIC assay, C. difficile NAP1/027; format: cell-based, Clostridium difficile; settings: Clostridioides difficile, ATCCBAA1803; strain NAP1/027
Method: Clostridium difficile strains (630, ATCC BAA-1382 and NAP1/027, ATCC BAA-1803) were maintained as previously described. The minimum inhibition concentration (MIC) was determined according to the CLSI Methods with modifications in broth and inoculum for C. difficile, [25], [26]. Briefly, compounds and control antibiotics were serially diluted two-fold in 96-well plates (Non-binding surface, Corning). The plates were placed in a Coy anaerobic chamber (5% H2, 10% CO2, 85% N2) overnight to reduce the medium. C. difficile bacteria from BHIS(TA) agar plates were cultured anaerobically in BHIS at 37 °C overnight. […]. Compound concentration ranged from 64 to 0.03 μg/mL. An antibiotic standard, a positive growth control (no compound) and a sterility control (no bacteria) were included on each 96 well plate. Plates were covered and incubated at 37 °C for 24 h. MICs for each strain were determined as the lowest concentration without visible growth. Variance between replicates was typically within one 2-fold dilution. Median MICs are reported with a range given when the median MIC was between two tested concentrations.

[8] = read-out: EC50 G. lamblia WB, MtzS strain WB, minimum n = 3
[9] = read-out: EC50 E. histolytica HM1:IMSS
[10] = read-out: pEC50 ± SE G. lamblia WB, MtzS strain WB (converted)
[11] = read-out: pEC50 ± SE E. histolytica HM1:IMSS (converted)

Compound	EC50 [1, 8] [µM]	EC50 [2, 9] [µM]	EC50 [3] [µM]	MIC [4] [µg/mL]	EC50 [1, 10] [µM]	S.I (CC50/EC50) [1]	EC50 [2, 11] [µM]	CC50 at 24 h [5] [µM]	CC50 at 24 h [6] [µM]	MIC [7] [µg/mL]	CC50 at 24 h ([5]; HEK293 cells) [µM]	CC50 at 24 h ([6]; HepG2 cells) [µM]
O=C(NCc1ccc(F)cc1)c1ncc[nH]1 [Compound 17, N-(4-fluorobenzyl)-1H-imidazole-2-carboxamide]	> 50	> 50	> 20	> 64								
NC(=O)c1nc([N+](=O)[O-])cn1Cc1cccc(OC(F)(F)F)c1 [Compound 13c, 4-nitro-1-(3-(trifluoromethoxy)benzyl)-1H-imidazole-2-carboxamide]	8.4	> 50		> 64	8.32	>12	> 50.1	> 100	> 100			
NC(=O)c1nccn1Cc1ccc(OC(F)(F)F)cc1 [Compound 18, 1-(4-(trifluoromethoxy)benzyl)-1H-imidazole-2-carboxamide]	> 50	> 50		> 64								
Nc1c[nH]c(C(=O)NCc2ccc(F)cc2)n1 [Compound 20, 4-amino-N-(4-fluorobenzyl)-1H-imidazole-2-carboxamide]	> 50	> 50	> 20	> 64								
Cc1ccc(CCn2cc([N+](=O)[O-])nc2C(N)=O)cc1 [Compound 13d, 1-(4-methylphenethyl)-4-nitro-1H-imidazole-2-carboxamide]	> 50	> 50		> 64	> 50.1		> 50.1			> 64	> 100	> 100
NC(=O)c1nc([N+](=O)[O-])cn1Cc1ccccn1 [Compound 13e, 4-nitro-1-(pyridin-2-ylmethyl)-1H-imidazole-2-carboxamide]	27	> 50		> 64	26.9	>3.7	> 50.1			> 64	> 100	> 100
CNC(=O)c1nc([N+](=O)[O-])cn1Cc1ccc(OC(F)(F)F)cc1 [Compound 14a, N-methyl-4-nitro-1-(4-(trifluoromethoxy)benzyl)-1H-imidazole-2-carboxamide]	3.4	30			3.39	>29	30.2	> 100	> 100	> 64		
CN(C)C(=O)c1nc([N+](=O)[O-])cn1Cc1ccc(OC(F)(F)F)cc1 [Compound 14b, N,N-dimethyl-4-nitro-1-(4-(trifluoromethoxy)benzyl)-1H-imidazole-2-carboxamide]	2.7	19		64 (≈ 179 µM)	2.69	>37	19.1	> 100	> 100	64 (≈ 179 µM)		
